How the values were obtained:
Gallus gallus [1] = species on record: Gallus gallus; assay: Inhibition of VEGF-mediated angiogenesis in the chick CAM assay expressed as capillary formation at 17 ug/mesh conc.; format: functional
Gallus gallus [2] = species on record: Gallus gallus; assay: Inhibition of VEGF-mediated angiogenesis in the chick CAM assay expressed as capillary formation at 33 ug/mesh conc.; format: functional
Gallus gallus [3] = species on record: Gallus gallus; assay: Inhibition of VEGF-mediated angiogenesis in the chick CAM assay expressed as capillary formation at 3 ug/mesh conc.; format: functional
[4] = target: Integrin alpha-IIb/beta-3 (Homo sapiens, UniProt P05106+P08514); assay: Inhibition of fibrinogen binding to integrin alphaIIb-beta3; format: protein-complex assay
Integrin alpha-V/beta-3 [5] = target: T1, Integrin alpha-V/beta-3 (Homo sapiens, UniProt P05106+P06756); assay: Inhibition of fibrinogen binding to integrin alphaV-beta3 receptor; format: protein-complex assay
Integrin alpha-V/beta-3 [6] = target: T1, Integrin alpha-V/beta-3; assay: Inhibition of fibrinogen binding to K562 cells expressing integrin alphaV-beta3; format: cell-based
[7] = target: Fibronectin receptor (Integrin alpha-5/beta-1 and alpha-V/beta-3) (Homo sapiens) (UniProt P05106+P05556+P06756+P08648); assay: Selectivity ratio for alpha5-beta1 and alphaV-beta3 integrins; format: protein-complex assay
[8] = target: Integrin alpha-V/beta-3 and alpha-IIb/beta 3 (Homo sapiens) (UniProt P05106+P06756+P08514); assay: Selectivity ratio for alphaIIb-beta3 over alphaV-beta3 integrins; format: protein assay
Homo sapiens = species on record: Homo sapiens; assay: Selectivity ratio for alphaV-beta5 over alphaV-beta3 integrins
Integrin alpha-V/beta-5 = Integrin alpha-V/beta-5 (Homo sapiens, UniProt P06756+P18084); assay: Inhibition of vitronectin binding to HT-29 cells expressing integrin alphaV-beta5; format: cell-based
Integrin alpha-5/beta-1 = Integrin alpha-5/beta-1 (Homo sapiens, UniProt P05556+P08648); assay: Inhibition of fibronectin binding to K562 cells expressing integrin alpha5-beta1
Integrin alpha-5/beta-1, sequence (P05556 21-798 limits assumed): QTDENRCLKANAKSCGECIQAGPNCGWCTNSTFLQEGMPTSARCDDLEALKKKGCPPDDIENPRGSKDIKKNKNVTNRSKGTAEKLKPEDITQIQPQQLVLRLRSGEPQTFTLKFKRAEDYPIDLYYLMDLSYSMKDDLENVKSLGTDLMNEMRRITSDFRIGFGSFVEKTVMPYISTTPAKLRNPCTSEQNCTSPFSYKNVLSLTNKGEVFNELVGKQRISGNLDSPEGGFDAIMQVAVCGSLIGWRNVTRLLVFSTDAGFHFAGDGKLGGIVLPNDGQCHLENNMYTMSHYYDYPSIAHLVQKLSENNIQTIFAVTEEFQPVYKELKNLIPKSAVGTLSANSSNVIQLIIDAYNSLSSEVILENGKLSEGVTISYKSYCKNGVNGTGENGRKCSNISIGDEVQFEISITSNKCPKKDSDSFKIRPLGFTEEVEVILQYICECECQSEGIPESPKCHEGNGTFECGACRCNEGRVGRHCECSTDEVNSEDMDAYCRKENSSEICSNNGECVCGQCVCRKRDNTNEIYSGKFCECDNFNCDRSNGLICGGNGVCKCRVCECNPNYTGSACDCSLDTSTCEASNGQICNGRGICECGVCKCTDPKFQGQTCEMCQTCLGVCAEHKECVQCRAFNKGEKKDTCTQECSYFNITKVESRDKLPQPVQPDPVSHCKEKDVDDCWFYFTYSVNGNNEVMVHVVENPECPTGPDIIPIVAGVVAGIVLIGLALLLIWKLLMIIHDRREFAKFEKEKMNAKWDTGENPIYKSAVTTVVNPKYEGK
Integrin alpha-5/beta-1, sequence (P08648 42-894 limits assumed): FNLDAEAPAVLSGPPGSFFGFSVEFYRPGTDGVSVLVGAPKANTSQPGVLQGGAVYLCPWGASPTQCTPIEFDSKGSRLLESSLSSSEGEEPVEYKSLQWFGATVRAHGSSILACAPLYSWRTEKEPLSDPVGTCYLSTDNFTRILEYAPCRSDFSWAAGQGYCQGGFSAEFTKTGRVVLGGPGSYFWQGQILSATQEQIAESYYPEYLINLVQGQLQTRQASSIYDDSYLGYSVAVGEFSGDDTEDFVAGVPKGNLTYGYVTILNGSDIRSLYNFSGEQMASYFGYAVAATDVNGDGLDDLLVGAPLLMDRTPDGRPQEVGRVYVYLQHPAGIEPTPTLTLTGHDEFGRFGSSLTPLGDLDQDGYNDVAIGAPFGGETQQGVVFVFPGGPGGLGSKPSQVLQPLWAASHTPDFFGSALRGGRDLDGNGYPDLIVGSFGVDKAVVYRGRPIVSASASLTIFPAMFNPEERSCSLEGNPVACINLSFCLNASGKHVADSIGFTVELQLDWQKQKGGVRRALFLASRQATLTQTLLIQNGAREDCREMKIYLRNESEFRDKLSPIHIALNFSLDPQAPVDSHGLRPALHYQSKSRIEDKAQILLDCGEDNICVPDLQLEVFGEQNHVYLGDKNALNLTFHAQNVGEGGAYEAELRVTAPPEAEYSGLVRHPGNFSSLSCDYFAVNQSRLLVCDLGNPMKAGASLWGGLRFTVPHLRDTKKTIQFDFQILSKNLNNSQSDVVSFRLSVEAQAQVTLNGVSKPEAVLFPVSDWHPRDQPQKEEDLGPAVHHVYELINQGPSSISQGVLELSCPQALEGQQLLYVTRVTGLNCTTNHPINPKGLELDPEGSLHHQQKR
Integrin alpha-5/beta-1, sequence (P08648 895-1049 limits assumed): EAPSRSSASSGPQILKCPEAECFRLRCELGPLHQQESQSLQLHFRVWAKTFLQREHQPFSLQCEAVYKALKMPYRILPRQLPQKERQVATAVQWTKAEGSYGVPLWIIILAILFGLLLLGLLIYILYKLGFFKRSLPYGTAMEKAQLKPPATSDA

T1 sequence (P05106 27-788 limits assumed): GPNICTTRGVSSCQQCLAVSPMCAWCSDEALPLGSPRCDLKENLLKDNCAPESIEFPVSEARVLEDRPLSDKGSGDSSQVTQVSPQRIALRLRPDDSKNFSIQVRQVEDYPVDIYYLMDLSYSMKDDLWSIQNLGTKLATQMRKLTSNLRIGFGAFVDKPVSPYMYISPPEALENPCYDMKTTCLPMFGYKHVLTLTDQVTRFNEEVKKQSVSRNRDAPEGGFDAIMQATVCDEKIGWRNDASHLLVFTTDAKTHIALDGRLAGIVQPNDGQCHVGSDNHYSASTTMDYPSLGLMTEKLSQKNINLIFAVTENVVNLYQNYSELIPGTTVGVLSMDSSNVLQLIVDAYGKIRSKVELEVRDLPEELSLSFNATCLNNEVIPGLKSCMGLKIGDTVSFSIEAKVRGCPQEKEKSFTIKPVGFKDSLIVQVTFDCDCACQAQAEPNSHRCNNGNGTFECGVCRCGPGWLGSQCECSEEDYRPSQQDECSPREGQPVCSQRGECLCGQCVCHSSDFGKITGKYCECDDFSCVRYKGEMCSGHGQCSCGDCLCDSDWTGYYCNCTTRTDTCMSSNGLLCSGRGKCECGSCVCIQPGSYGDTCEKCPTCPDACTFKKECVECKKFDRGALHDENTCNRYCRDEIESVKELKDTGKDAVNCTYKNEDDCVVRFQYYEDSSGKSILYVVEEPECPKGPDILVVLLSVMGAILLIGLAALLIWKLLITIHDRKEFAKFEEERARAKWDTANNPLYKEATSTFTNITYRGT
T1 sequence (P06756 31-889 limits assumed): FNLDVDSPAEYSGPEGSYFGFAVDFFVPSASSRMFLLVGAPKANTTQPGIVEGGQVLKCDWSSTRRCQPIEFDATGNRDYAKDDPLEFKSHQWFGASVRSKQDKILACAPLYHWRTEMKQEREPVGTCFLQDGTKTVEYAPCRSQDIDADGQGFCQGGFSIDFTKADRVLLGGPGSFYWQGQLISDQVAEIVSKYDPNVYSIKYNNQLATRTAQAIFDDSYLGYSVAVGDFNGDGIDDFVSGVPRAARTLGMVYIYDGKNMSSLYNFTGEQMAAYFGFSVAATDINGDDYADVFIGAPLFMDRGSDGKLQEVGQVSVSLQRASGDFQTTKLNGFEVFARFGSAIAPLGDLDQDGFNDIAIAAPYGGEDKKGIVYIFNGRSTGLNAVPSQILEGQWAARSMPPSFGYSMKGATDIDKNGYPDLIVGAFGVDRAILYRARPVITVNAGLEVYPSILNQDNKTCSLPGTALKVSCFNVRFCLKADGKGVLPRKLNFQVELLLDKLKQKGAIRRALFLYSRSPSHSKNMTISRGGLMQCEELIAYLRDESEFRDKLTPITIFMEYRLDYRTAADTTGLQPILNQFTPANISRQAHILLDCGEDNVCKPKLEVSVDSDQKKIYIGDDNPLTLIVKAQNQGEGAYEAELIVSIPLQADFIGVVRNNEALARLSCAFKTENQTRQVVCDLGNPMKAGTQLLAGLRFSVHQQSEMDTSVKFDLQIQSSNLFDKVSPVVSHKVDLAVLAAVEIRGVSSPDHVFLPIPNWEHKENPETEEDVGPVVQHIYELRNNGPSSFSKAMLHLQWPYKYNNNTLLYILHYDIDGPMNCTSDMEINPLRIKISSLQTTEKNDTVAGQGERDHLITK
T1 sequence (P06756 891-1048 limits assumed): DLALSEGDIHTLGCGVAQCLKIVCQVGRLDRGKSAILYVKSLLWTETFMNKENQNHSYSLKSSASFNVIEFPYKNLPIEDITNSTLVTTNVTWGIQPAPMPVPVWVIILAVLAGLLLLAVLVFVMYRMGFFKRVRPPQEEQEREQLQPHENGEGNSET
Integrin alpha-IIb/beta-3, sequence (P05106 27-788 limits assumed): as the sequence (P05106 27-788 limits assumed) above
Integrin alpha-IIb/beta-3, sequence (P08514 32-887 limits assumed): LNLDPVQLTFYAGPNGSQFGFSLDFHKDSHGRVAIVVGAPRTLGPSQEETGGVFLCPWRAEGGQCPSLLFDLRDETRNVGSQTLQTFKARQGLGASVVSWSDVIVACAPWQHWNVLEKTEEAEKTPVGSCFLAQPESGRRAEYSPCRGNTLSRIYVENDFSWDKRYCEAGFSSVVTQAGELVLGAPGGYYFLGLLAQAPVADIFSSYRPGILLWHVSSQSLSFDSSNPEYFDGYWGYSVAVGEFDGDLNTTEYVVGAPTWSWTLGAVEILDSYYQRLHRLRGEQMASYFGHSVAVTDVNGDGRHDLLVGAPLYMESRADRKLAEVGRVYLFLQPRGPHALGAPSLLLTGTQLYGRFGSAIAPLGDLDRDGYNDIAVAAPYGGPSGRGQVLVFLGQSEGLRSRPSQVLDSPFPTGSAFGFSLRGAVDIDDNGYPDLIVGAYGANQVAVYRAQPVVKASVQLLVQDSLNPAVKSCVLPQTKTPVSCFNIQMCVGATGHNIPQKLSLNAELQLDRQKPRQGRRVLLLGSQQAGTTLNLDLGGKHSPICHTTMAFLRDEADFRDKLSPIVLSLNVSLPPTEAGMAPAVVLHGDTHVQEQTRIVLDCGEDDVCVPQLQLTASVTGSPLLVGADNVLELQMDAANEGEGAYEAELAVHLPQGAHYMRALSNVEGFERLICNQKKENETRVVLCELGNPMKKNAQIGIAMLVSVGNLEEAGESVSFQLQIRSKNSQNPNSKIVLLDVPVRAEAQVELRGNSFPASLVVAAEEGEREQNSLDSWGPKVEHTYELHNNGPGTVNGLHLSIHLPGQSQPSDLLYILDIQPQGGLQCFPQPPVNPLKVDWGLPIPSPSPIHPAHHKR
Integrin alpha-IIb/beta-3, sequence (P08514 891-1039 limits assumed): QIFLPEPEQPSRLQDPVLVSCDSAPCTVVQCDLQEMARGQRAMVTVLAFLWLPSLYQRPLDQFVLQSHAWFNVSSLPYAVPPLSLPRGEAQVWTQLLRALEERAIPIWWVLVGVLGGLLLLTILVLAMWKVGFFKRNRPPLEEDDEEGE

For Cc1cc(C)c(S(=O)(=O)N[C@@H](CNC(=O)c2ccc(-c3cccc(CN=C(N)N)c3)s2)C(=O)O)c(C)c1.O=C(O)C(F)(F)F, the Inhibition (Gallus gallus [1]) was 91%, the Inhibition (Gallus gallus [2]) was 95% and the Inhibition (Gallus gallus [3]) was 65%. For the same compound, the IC50 [4] was 0.16 nM, the IC50 (Integrin alpha-V/beta-3 [5]) was 3.4 nM and the IC50 (Integrin alpha-V/beta-3 [6]) was 11 nM. The Ratio [7] was 6, the Ratio [8] was less than 0.1 and the Ratio (Homo sapiens) was 1.
Compound N=C(N)NCc1cccc(-c2ccc(C(=O)NC[C@H](NS(=O)(=O)c3ccccc3)C(=O)O)s2)c1.O=C(O)C(F)(F)F has an Inhibition (Gallus gallus [1]) of 42%, an Inhibition (Gallus gallus [2]) of 57% and an Inhibition (Gallus gallus [3]) of 29%. For the same compound, the IC50 [4] was 0.34 nM, the IC50 (Integrin alpha-V/beta-3 [5]) was 2.2 nM and the IC50 (Integrin alpha-V/beta-3 [6]) was 0.74 nM. It also gave a Ratio [7] of 864, a Ratio [8] of less than 0.5 and a Ratio (Homo sapiens) of 97.
Cc1cc(C)c(S(=O)(=O)N[C@@H](CNC(=O)c2ccc(-c3cccc(NC(=N)N)c3)s2)C(=O)O)c(C)c1 gave an IC50 [4] of 0.31 nM, an IC50 (Integrin alpha-V/beta-3 [5]) of 1.4 nM and an IC50 (Integrin alpha-V/beta-3 [6]) of 0.00092 nM. For the same compound, the IC50 (Integrin alpha-V/beta-5) was 2.5 nM, the Ratio [7] was 28300 and the Ratio [8] was 300. The Ratio (Homo sapiens) was 2720 and the IC50 (Integrin alpha-5/beta-1) was 26 nM.
N=C(N)Nc1cccc(-c2ccc(C(=O)NC[C@H](NS(=O)(=O)c3ccccc3)C(=O)O)s2)c1.O=C(O)C(F)(F)F gave an Inhibition (Gallus gallus [1]) of 66%, an Inhibition (Gallus gallus [2]) of 98% and an Inhibition (Gallus gallus [3]) of 29%. For the same compound, the IC50 [4] was 0.59 nM, the IC50 (Integrin alpha-V/beta-3 [5]) was 1 nM and the IC50 (Integrin alpha-V/beta-3 [6]) was 0.19 nM. It also gave a Ratio [7] of 500, a Ratio [8] of 3 and a Ratio (Homo sapiens) of 33. For the same compound, the IC50 (Integrin alpha-5/beta-1) was 95 nM.
Compound N=C(N)Nc1ccccc1-c1ccc(C(=O)NC[C@H](NS(=O)(=O)c2ccccc2)C(=O)O)s1 has an IC50 [4] of 0.25 nM, an IC50 (Integrin alpha-V/beta-3 [5]) of 5500 nM and an IC50 (Integrin alpha-V/beta-3 [6]) of 5330 nM. It also gave a Ratio [8] of less than 0.1.
Compound N=C(N)NCc1ccc(-c2ccc(C(=O)NC[C@H](NS(=O)(=O)c3ccccc3)C(=O)O)s2)cc1 has an IC50 [4] of 6.1 nM, an IC50 (Integrin alpha-V/beta-3 [5]) of 2.1 nM and an IC50 (Integrin alpha-V/beta-3 [6]) of 730 nM. The Ratio [8] was less than 0.1.
In the case of N=C(N)NCc1ccccc1-c1ccc(C(=O)NC[C@H](NS(=O)(=O)c2ccccc2)C(=O)O)s1, the IC50 [4] is reported as 0.0058 nM, the IC50 (Integrin alpha-V/beta-3 [5]) is reported as 0.04 nM and the IC50 (Integrin alpha-V/beta-3 [6]) is reported as 21 nM. For the same compound, the Ratio [8] was less than 0.1.
N=C(N)Nc1ccc(-c2ccc(C(=O)NC[C@H](NS(=O)(=O)c3ccccc3)C(=O)O)s2)cc1 gave an IC50 [4] of 0.0013 nM, an IC50 (Integrin alpha-V/beta-3 [5]) of 71.5 nM and an IC50 (Integrin alpha-V/beta-3 [6]) of 3790 nM. For the same compound, the Ratio [8] was less than 0.1.

Reference: ChEMBL document CHEMBL1136561, “Thiophene-based vitronectin receptor antagonists” (Bioorg Med Chem Lett, 2003)
